The values that follow come from patent publication US20050215614A1, “Substituted indoles and their use as hcv inhibitors” (Rigel Pharmaceuticals, Inc., priority 2003, published 2005).

Each structure is given as a SMILES string.

The test deals with HCV replicon. Briefly: HCV Replicon Assay (luciferase, 5-2 Luc replicon cells). The format is cell-based. The note with it: 5-2 Luc replicon cells (Huh7), 24-48 hours with compound, luciferase counts. The protocol: Actively dividing 5-2 Luc replicon cells were seeded at the density of 5000-7500 cells/well in the volume of 90 μl/well into 96 well plate(s). The cells were then incubated at 37° C. and 5% CO2 for 24 hours. The 5-2 cells are replicon cells licensed from Ralf Bartenschlager (Germany) and have a self-replicating RNA molecule in the Huh7 cell; the RNA contains HCV non-structural proteins that make the self-replication possible.
Various concentrations of compounds (in the volume of 10 μl) were added into each well 24 hours after seeding the cells. The cells were incubated for another 24-48 hours before luciferase assay.
After incubating the 5-2 Luc replicon cells with the compounds for 24-48 hours, media were aspirated from each well and Bright-Glo (Promega) luciferase assay reagents were added to each well according to the manufacturer′s manual. Briefly, the Bright-Glo reagent was diluted with equal volume of PBS and an aliquote (100 μl) was added to each well. After incubating the plate at room temperature for 5 minutes, luciferase counts were taken using a luminometer.
As to `CCC(C)C(=O)Nc1ccc2c(c1)cc(C)n2C(=O)c1c(Cl)cccc1Cl` (centres unmarked) [Compound 16a-6, 1-(2′,6′-Dichlorobenzoyl)-5-(2-methylbutanoyl)amino-2-methylindole], the “Activity (concentration of inhibitory activity)” value is recorded as “a (“a” indicates inhibitory activity at a concentration of less than 10 micromolar)”.
With `CCCCC(=O)Nc1ccc2c(c1)cc(C)n2C(=O)c1c(Cl)cccc1Cl` [Compound 16a-7, 1-(2′,6′-Dichlorobenzoyl)-5-(n-pentanoyl)amino-2-methylindole], the “Activity (concentration of inhibitory activity)” value is “a (“a” indicates inhibitory activity at a concentration of less than 10 micromolar)”.
The result for `C/C=C/C(=O)Nc1ccc2c(c1)cc(C)n2C(=O)c1c(Cl)cccc1Cl` [Compound 16a-8, 5-(trans-Crotonyl)amino-1-(2′,6′-dichlorobenzoyl)-2-methylindole] reads “a (“a” indicates inhibitory activity at a concentration of less than 10 micromolar)”; that for `CCC(CC)C(=O)Nc1ccc2c(c1)cc(C)n2C(=O)c1c(Cl)cccc1Cl` [Compound 16a-9, 1-(2′,6′-Dichlorobenzoyl)-5-(2-ethylbutanoyl)amino-2-methylindole], “a (“a” indicates inhibitory activity at a concentration of less than 10 micromolar)”.
To `Cc1cc2cc(NC(=O)c3cccnc3)ccc2n1C(=O)c1c(Cl)cccc1Cl` [Compound 16a-10, 1-(2′,6′-Dichlorobenzoyl)-5-(3-pyridylcarbonyl)amino-2-methylindole] belongs “a (“a” indicates inhibitory activity at a concentration of less than 10 micromolar)”; to `Cc1ccsc1C(=O)Nc1ccc2c(c1)cc(C)n2C(=O)c1c(Cl)cccc1Cl` [Compound 16a-11, 1-(2′,6′-Dichlorobenzoyl)-5-(3-methyl-2-thiophenylcarbonyl)amino-2-methylindole], “a (“a” indicates inhibitory activity at a concentration of less than 10 micromolar)”.
On to `COc1cscc1C(=O)Nc1ccc2c(c1)cc(C)n2C(=O)c1c(Cl)cccc1Cl` [Compound 16a-12, 1-(2′,6′-Dichlorobenzoyl)-5-(4-methoxy-3-thiophenylcarbonyl)amino-2-methylindole], for which the “Activity (concentration of inhibitory activity)” value was “a (“a” indicates inhibitory activity at a concentration of less than 10 micromolar)”.
The result for `Cc1cc2cc(NC(=O)Cc3cccnc3)ccc2n1C(=O)c1c(Cl)cccc1Cl` [Compound 16a-13, 1-(2′,6′-Dichlorobenzoyl)-5-(3-pyridyl-2-acetamido)-2-methylindole] reads “a (“a” indicates inhibitory activity at a concentration of less than 10 micromolar)”.
To `Cc1cc2cc(NC(=O)C3CCC(=O)C3)ccc2n1C(=O)c1c(Cl)cccc1Cl` (centres unmarked) [Compound 16a-14] belongs “a (“a” indicates inhibitory activity at a concentration of less than 10 micromolar)”; to `COc1cccc(OC)c1C(=O)n1c(C)cc2cc(NC(=O)C3CC3)ccc21` [Compound 16b4, 5-Cyclopropanecarbonylamino-1-(2′,6′-dimethoxybenzoyl)-2-methylindole], “a (“a” indicates inhibitory activity at a concentration of less than 10 micromolar)”; to `COc1cccc(OC)c1C(=O)n1c(C)cc2cc(NC(=O)C3CCCC3)ccc21` [Compound 16b-1, 5-Cyclopentanecarbonylamino-1-(2′,6′-dimethoxybenzoyl)-2-methylindole], “a (“a” indicates inhibitory activity at a concentration of less than 10 micromolar)”.
To `COc1cccc(OC)c1C(=O)n1c(C)cc2cc(NC(=O)C3CCCCC3)ccc21` [Compound 16b-2, 5-Cyclohexanecarbonylamino-1 (2′,6′-dimethoxybenzoyl)-2-methylindole] belongs “a (“a” indicates inhibitory activity at a concentration of less than 10 micromolar)”.
Consider `COc1cccc(OC)c1C(=O)n1c(C)cc2cc(NC(=O)C3CCC3)ccc21` [Compound 16b-3, 5-Cyclobutanecarbonylamino-1-(2′,6′-dimethoxybenzoyl)-2-methylindole], for which the “Activity (concentration of inhibitory activity)” value is on record as “a (“a” indicates inhibitory activity at a concentration of less than 10 micromolar)”.
To `COc1cccc(OC)c1C(=O)n1c(C)cc2cc(NC(=O)c3cccnc3)ccc21` [Compound 16b-5, 1-(2′,6′-Dimethoxybenzoyl)-5-(3-pyridylcarbonyl)amino-2-methylindole] belongs “a (“a” indicates inhibitory activity at a concentration of less than 10 micromolar)”; to `COc1cccc(OC)c1C(=O)n1c(C)cc2cc(NC(=O)C3CCC(=O)C3)ccc21` (centres unmarked) [Compound 16b-6, 1-(2′,6′-Dimethoxybenzoyl)-5-(3-oxo-1-cyclopentanecarbonyl)amino-2-methylindole], “a (“a” indicates inhibitory activity at a concentration of less than 10 micromolar)”.
To `Cc1cc2cc(NC(=O)C3CCCC3)ccc2n1C(=O)c1c(F)cccc1C(F)(F)F` [Compound 16c-1, 5-Cyclopentanecarbonylamino-1-(2′-fluoro-6′-trifluoromethylbenzoyl)-2-methylindole] belongs “a (“a” indicates inhibitory activity at a concentration of less than 10 micromolar)”; to `Cc1cc2cc(NC(=O)C3CCCCC3)ccc2n1C(=O)c1c(F)cccc1C(F)(F)F` [Compound 16c-2, 5-Cyclohexanecarbonylamino-1-(2′-fluoro-6′-trifluoromethylbenzoyl)-2-methylindole], “a (“a” indicates inhibitory activity at a concentration of less than 10 micromolar)”; to `Cc1cc2cc(NC(=O)C3CCC3)ccc2n1C(=O)c1c(F)cccc1C(F)(F)F` [Compound 16c-3, 5-Cyclobutanecarbonylamino-1-(2′-fluoro-6′-trifluoromethylbenzoyl)-2-methylindole], “a (“a” indicates inhibitory activity at a concentration of less than 10 micromolar)”.
The result for `Cc1cc2cc(NC(=O)C3CC3)ccc2n1C(=O)c1c(F)cccc1C(F)(F)F` [Compound 16c-4, 5-Cyclopropanecarbonylamino-1-(2′fluoro-6′-trifluoromethylbenzoyl)-2-methylindole] reads “a (“a” indicates inhibitory activity at a concentration of less than 10 micromolar)”.
For `Cc1cc2cc(NC(=O)C3CCC(=O)C3)ccc2n1C(=O)c1c(F)cccc1C(F)(F)F` (centres unmarked) [Compound 16c-5, 1-(2′-Fluoro-6′-trifluoromethylbenzoyl)-5-(3-oxo-1-cyclopentanecarbonyl)amino-2-methylindole], the “Activity (concentration of inhibitory activity)” value is given as “a (“a” indicates inhibitory activity at a concentration of less than 10 micromolar)”.
The result for `Cc1cc2cc(NC(=O)C3CCCC3)ccc2n1C(=O)c1c(F)cccc1F` [Compound 16d-1, 5-Cyclopentanecarbonylamino-1-(2′,6′-difluorobenzoyl)-2-methylindole] reads “b (“b” indicates activity is at a concentration greater than 10 micromolar)”; that for `Cc1cc2cc(NC(=O)C3CCC3)ccc2n1C(=O)c1c(F)cccc1F` [Compound 16d-2, 5-Cyclobutanecarbonylamino-1-(2′,6′-difluorobenzoyl)-2-methylindole], “b (“b” indicates activity is at a concentration greater than 10 micromolar)”.
To `Cc1cc2cc(NC(=O)C3CC3)ccc2n1C(=O)c1c(F)cccc1F` [Compound 16d-3, 5-Cyclopropanecarbonylamino-1-(2′,6′-difluorobenzoyl)-2-methylindole] belongs “b (“b” indicates activity is at a concentration greater than 10 micromolar)”.
For the compound `Cc1cc2cc(NC(=O)C3CCCC3)ccc2n1C(=O)c1c(F)cccc1Cl` [Compound 16e-1, 1-(2′-Chloro-6′-fluorobenzoyl)-5-cyclopentanecarbonylamino-2-methylindole], the “Activity (concentration of inhibitory activity)” value is on record as “a (“a” indicates inhibitory activity at a concentration of less than 10 micromolar)”.
In the case of `Cc1cc2cc(NC(=O)C3CCCCC3)ccc2n1C(=O)c1c(F)cccc1Cl` [Compound 16e-2, 1-(2′-Chloro-6′-fluorobenzoyl)-5-Cyclohexanecarbonylamino-2-methylindole], the “Activity (concentration of inhibitory activity)” value is “a (“a” indicates inhibitory activity at a concentration of less than 10 micromolar)”.
With `Cc1cc2cc(NC(=O)C3CCC3)ccc2n1C(=O)c1c(F)cccc1Cl` [Compound 16e-3, 1-(2′-Chloro-6′-fluorobenzoyl)-5-cyclobutanecarbonylamino-2-methylindole], the “Activity (concentration of inhibitory activity)” value is “a (“a” indicates inhibitory activity at a concentration of less than 10 micromolar)”.
To `Cc1cc2cc(NC(=O)C3CC3)ccc2n1C(=O)c1c(F)cccc1Cl` [Compound 16e-4, 1-(2′-Chloro-6′-fluorobenzoyl)-5-cyclopropanecarbonylamino-2-methylindole] belongs “a (“a” indicates inhibitory activity at a concentration of less than 10 micromolar)”.
To `Cc1cc2cc(NC(=O)C3CCC(=O)C3)ccc2n1C(=O)c1c(F)cccc1Cl` (centres unmarked) [Compound 16e-5, 1-(2′-Chloro-6′-fluorobenzoyl)-5-(3-oxo-1-cyclopentanecarbonyl)amino-2-methylindole] belongs “a (“a” indicates inhibitory activity at a concentration of less than 10 micromolar)”; to `Cc1cccc(C)c1C(=O)n1c(C)cc2cc(NC(=O)C3CCCC3)ccc21` [Compound 16f-1, 5-Cyclopentanecarbonylamino-1-(2′,6′-dimethylbenzoyl)-2-methylindole], “a (“a” indicates inhibitory activity at a concentration of less than 10 micromolar)”.
